# Data reported in PMC9921329, “Semisynthetic Sesquiterpene Lactones Generated by the Sensibility of Glaucolide B to Lewis and Brønsted–Lowry Acids and Bases: Cytotoxicity and Anti-Inflammatory Activities” (Molecules, 2023).
# Legend:
# [1] = test system: SF295 (human glioblastoma cell line); experiment: MTT cell viability, human glioblastoma cells; type: cell-based; details: 24 h incubation, mean ± SD (n = 3), test concentration not given
# Description: (§1) To evaluate the potential antitumoral activity of the compounds, the MTT [3-(4,5-dimethyl-2-thiazolyl)-2,5-diphenyl-2H-tetrazolium bromide] method was used to determine the cell viability of SK-MEL-28 (human melanoma cell line), NCI-H460 (human lung carcinoma cell line), SF295 (human glioblastoma cell line), and HUVEC (human umbilical vein endothelial cells) line. Cell viability analysis of murine macrophage J774A.1 was conducted using a resazurin-based cytotoxicity assay (Alamar blue®). All cell lines were acquired from the BCRJ (Rio de Janeiro Cell Bank, Federal University of Rio de Janeiro, Brazil). The cell lines were cultivated in RPMI-1640 or DMEM medium, supplemented with 1.5 g/L of sodium bicarbonate, 10 mM of HEPES, pH 7.4, 100 U/mL of penicillin G, 100 μg/mL of streptomycin, and 10% fetal calf serum at 37 °C in a humidified atmosphere consisting of 95% air and 5% CO2 cultures, and greater than 95% of viable cells in trypan blue exclusion tests were used for the experiments. Therefore, cells were seeded (1 × 10^4/well) in 96-well plates and incubated with increasing concentrations of the compounds for 24 h. After incubation, the former culture medium was replaced with a fresh culture medium with 5 mg/mL of MTT and with 0.1 mg/mL of resazurin for 2 h at 37 °C. MTT formazan crystals were dissolved in DMSO, and the absorbance of each well was measured at 540 nm, using a micro-well system reader. For the control group of each cell line, cells were incubated without the compounds and considered to have 100% cell viability. MTT formazan crystals were dissolved in DMSO, and absorbance was measured at 540 nm using a microplate reader (ELX800, Biotek, Winooski, VT, USA). The half-maximal cytotoxic concentration (CC50) values were calculated from a Hill concentration–response curve. Results were expressed as the mean ± SD of three experiments. The selectivity index (SI) was calculated via the ratio between the CC50 of non-tumoral cells and the tumoral cell lines. […] For the resazurin assay, fluorescence was measured at 1 h intervals using a plate multi-reader (Infinite Multireader m200 Tecan) at 530–590 nm. Nonlinear regression of each fraction versus percentage cell viability was performed to obtain a 10% toxicity concentration (a concentration causing 90% cell viability) using GraphPad Prism 8.0 software (GraphPad Software, San Diego, CA, USA).
# [2] = test system: SK-MEL-28 (human melanoma cell line); experiment: MTT cell viability / cytotoxicity, human melanoma cells; type: cell-based; details: for Viability (%) SK-MEL-28 / CC50: MTT; for Viability (%) SK-MEL-28: 24 h incubation, mean ± SD (n = 3), test concentration not given; for CC50: 24 h, half-maximal cytotoxic concentration; for SI (selectivity index) SK-MEL-28: ratio of CC50 of non-tumoral HUVEC cells to CC50 of SK-MEL-28
# Description: as §1
# [3] = test system: NCI-H460 (human lung carcinoma cell line); experiment: MTT cell viability, human lung carcinoma cells; type: cell-based; details: 24 h incubation, mean ± SD (n = 3), test concentration not given
# Description: as §1
# [4] = MTT cytotoxicity, non-tumoral endothelial cells; type: cell-based, human; details: human, HUVEC cells (non-tumoral), pH 7.4
# Description: as §1
# [5] = test system: LPS-stimulated M1 macrophages J774A.1 (IL-6); experiment: Interleukin-6 release from LPS-stimulated macrophages (ELISA); type: cell-based, murine; details: for Anti-inflammatory activity, IL-6 release (in words): compound at CC10, LPS 10 μg/mL; for Reduction of IL-6 release vs control M1 cells (LPS+ group): compound at CC10, pre-treatment 15 min, LPS 10 μg/mL, 24 h
# Description: (§2) The in vitro anti-inflammatory activity was performed in murine macrophage J774A.1 and analyzed after modifications to the protocol previously described by […] and coworkers. The evaluation consisted of measuring the production of nitrite through an indicator of NO synthesis in supernatants from LPS-activated macrophages. A number of 1 × 10^5 cells/well were seeded in 96-well plates for 24 h, after which time the culture medium was changed, and the CC10 concentration (Figure S70, found in the Supplementary Materials) of each compound was added to the medium containing DMEM supplemented with 10% FBS. After 15 min, macrophages were stimulated with 10 μg/mL of LPS and incubated for 24 h to obtain a proinflammatory M1-phenotype. Subsequently, supernatants were collected and total nitrite nitrate (NOx) was measured by adding 100 μL of Griess' reagent (1% sulfanilamide and 0.1% N-(1-naphthyl) ethylenediamine in 0.5% phosphoric acid). Absorbance was determined with a microplate reader (ELX800, BioTek, Winooski, VT, USA) at 540 nm. In addition, the proinflammatory cytokine IL-6 was determined using an enzyme-linked immunosorbent assay (ELISA) (BD Bioscience, San Jose, CA, USA) according to the manufacturer's instructions.
# [6] = test system: LPS-stimulated M1 macrophages J774A.1 (NOx); experiment: Total nitrite nitrate (NOx) release from LPS-stimulated macrophages (Griess); type: cell-based, murine; details: for Anti-inflammatory activity, NOx release (in words): compound at CC10, LPS 10 μg/mL; for Reduction of NOx release vs control M1 cells (LPS+ group): compound at CC10, pre-treatment 15 min, LPS 10 μg/mL, 24 h
# Description: as §2
# [7] = test system: murine macrophage J774A.1; experiment: Resazurin-based cytotoxicity assay (Alamar blue) in macrophages; type: cell-based; details: J774A.1, Figure S70
# Description: To evaluate the potential antitumoral activity of the compounds, the MTT [3-(4,5-dimethyl-2-thiazolyl)-2,5-diphenyl-2H-tetrazolium bromide] method was used to determine the cell viability of SK-MEL-28 (human melanoma cell line), NCI-H460 (human lung carcinoma cell line), SF295 (human glioblastoma cell line), and HUVEC (human umbilical vein endothelial cells) line. Cell viability analysis of murine macrophage J774A.1 was conducted using a resazurin-based cytotoxicity assay (Alamar blue®). All cell lines were acquired from the BCRJ (Rio de Janeiro Cell Bank, Federal University of Rio de Janeiro, Brazil). […] MTT formazan crystals were dissolved in DMSO, and the absorbance of each well was measured at 540 nm, using a micro-well system reader. […] MTT formazan crystals were dissolved in DMSO, and absorbance was measured at 540 nm using a microplate reader (ELX800, Biotek, Winooski, VT, USA). The half-maximal cytotoxic concentration (CC50) values were calculated from a Hill concentration–response curve. Results were expressed as the mean ± SD of three experiments. The selectivity index (SI) was calculated via the ratio between the CC50 of non-tumoral cells and the tumoral cell lines. […] For the resazurin assay, fluorescence was measured at 1 h intervals using a plate multi-reader (Infinite Multireader m200 Tecan) at 530–590 nm. […]
# [8] = test system: HUVEC (human umbilical vein endothelial cells); experiment: MTT cytotoxicity, non-tumoral endothelial cells; type: cell-based; details: 24 h
# Description: as §1
Compound,Viability (%) SF295 [1],Viability (%) SK-MEL-28 [2],Viability (%) NCI-H460 [3],further results
CC(=O)OCC1=C2C(OC(C)=O)CC(C)(OC(C)=O)C3(O)CCC(C)(O3)C(=O)C2(O)OC1=O (stereo not drawn) [Compound 7c],88.6 ± 4.8%,79.2 ± 6.4%,85.7 ± 1.6%,
"COCC1=C2C(OC(C)=O)CC(C)(OC(C)=O)C3(O)CCC(C)(O)C(OC(C)=O)C23OC1=O (stereo not drawn) [Compound 2, 13-O-methylvernojalcanolide-8-O-acetate]",86.8 ± 6.3%,87.1 ± 2.6%,91.8 ± 3.6%,
"CC(=O)OCC1=C2C(OC(C)=O)CC(C)(OC(C)=O)C3(O)CCC(C)(O)C(OC(C)=O)C23OC1=O (stereo not drawn) [Compound 3, 1,4-dihydroxy-5,8,10,13-tetraacetoxycadin-7(11)-en-6,12-olide]",86.1 ± 2.3%,91.1 ± 1.7%,88.4 ± 3.4%,
"CC(=O)OCC1=C2/C(=C\C3(C)CCC(O)(O3)C(C)(O)CC2OC(C)=O)OC1=O (stereo not drawn) [Compound 12, diacetylpiptocarphol, reference compound]",80.4 ± 3.3%,9.0 ± 0.5%,63.8 ± 6.9%,"CC50 ([2]; Homo sapiens, SK-MEL-28): 3.8 µM; SI (selectivity index) SK-MEL-28 [2]: 3.3; CC50 at 24 h [4]: 12.6 µM"
"C=C1C(=O)OC2C(O)C(C)(O)CC3C(=O)C(C)(O)CC(OC(C)=O)C132 (stereo not drawn) [Compound 9, 8-acetoxy-vernomargolide]",85.2 ± 2.8%,74.5 ± 4.9%,84.9 ± 0.4%,
"C=C1C(=O)OC2C(O)C3(C)CCC(OC(C)=O)(O3)C3(C)CC(OC(C)=O)C12O3 (stereo not drawn) [Compound 8, 1,8-diacetoxy-1(4),7(10)-diepoxy-5-hydroxygermacr-11(13)-en-6(12)-olide]",82.0 ± 4.7%,66.9 ± 3.5%,87.3 ± 1.6%,
"C=C1C(=O)OC2C(OC(C)=O)C3(C)CC4C12C(OC(C)=O)CC(C)(O)C4(O)O3 (stereo not drawn) [Compound 5, 5,8,10-triacetoxy-2-epi-vernomargolide-1,4-cyclosemiacetal]",95.6 ± 3.9%,95.3 ± 4.1%,100.3 ± 5.5%,
"C=C(C)C(=O)OC1CC(C)(O)C2(O)CCC(C)(/C=C3/OC(=O)C(COC(C)=O)=C31)O2 (stereo not drawn) [Compound 10, piptocarphin A, reference compound]",93.2 ± 3.2%,23.1 ± 4.2%,104.8 ± 1.6%,"CC50 ([2]; Homo sapiens, SK-MEL-28): 6.7 µM; SI (selectivity index) SK-MEL-28 [2]: 1.9; CC50 at 24 h [4]: 12.5 µM"
"CC(=O)OCC1=C2/C(=C\C3(C)CC=C(O3)C(C)(OC(C)=O)CC2OC(C)=O)OC1=O (stereo not drawn) [Compound 7b, 8,10,13-triacetoxy-1(4)-epoxy-germacra-1(2),5(6),7(11)-trien-6(12)-olide]",83.3 ± 1.2%,16.0 ± 2.6%,73.2 ± 1.0%,"CC50 ([2]; Homo sapiens, SK-MEL-28): 11.2 µM; SI (selectivity index) SK-MEL-28 [2]: 2.5; CC50 at 24 h [4]: 27.8 µM"
"CC(=O)OCC1=C2C(OC(C)=O)CC(C)(OC(C)=O)C3(O)CCC(C)(O3)C(OC(C)=O)C2OC1=O (stereo not drawn) [Compound 7a, 5-acetoxy-hirsutinolide]",86.9 ± 4.3%,17.1 ± 3.3%,74.6 ± 1.3%,"Anti-inflammatory activity, IL-6 release (in words) [5]: strongly reduced; Reduction of IL-6 release vs control M1 cells (LPS+ group) [5]: ~77%; Anti-inflammatory activity, NOx release (in words) [6]: strongly reduced; Reduction of NOx release vs control M1 cells (LPS+ group) [6]: ~77%; CC50 ([2]; Homo sapiens, SK-MEL-28): 5 µM; SI (selectivity index) SK-MEL-28 [2]: 2.5; Cytotoxicity against macrophages (in words) [7]: less cytotoxicity against macrophages; CC50 at 24 h [4]: 12.7 µM"
"C=C1C(=O)OC2(O)C(=O)C3(C)CCC(=O)C(C)(OC(C)=O)CC(OC(C)=O)C12O3 (stereo not drawn) [Compound 7c.1, 8,10-diacetoxy-4(7)-epoxy-6-hydroxy-1,5-oxo-germacr-11(13)-en-6(12)-olide]",87.0 ± 4.7%,77.3 ± 0.3%,88.7 ± 6.7%,"Anti-inflammatory activity, IL-6 release (in words) [5]: strongly reduced; Reduction of IL-6 release vs control M1 cells (LPS+ group) [5]: ~77%; Anti-inflammatory activity, NOx release (in words) [6]: strongly reduced; Reduction of NOx release vs control M1 cells (LPS+ group) [6]: ~77%; Cytotoxicity against macrophages (in words) [7]: less cytotoxicity against macrophages"
"C=C1C(=O)OC2C(OC(C)=O)C3(C)CC4C12C(OC(C)=O)CC(C)(OC(C)=O)C4(O)O3 (stereo not drawn) [Compound 4, 5,8-diacetoxy-2-epi-vernomargolide-1,4-cyclosemiacetal]",94.7 ± 1.1%,96.4 ± 6.9%,100.2 ± 2.7%,
"CC(=O)OCC1=C2C(OC(C)=O)CC(C)(OC(C)=O)C3(O)CCC(C)(O3)C(O)C2OC1=O (stereo not drawn) [Compound 7, 5-hydroxy-hirsutinolide]",86.7 ± 3.8%,76.2 ± 7.5%,89.1 ± 3.9%,
"glaucolide A [Compound 11, reference compound]",91.8 ± 3.3%,56.3 ± 1.4%,95.1 ± 4.6%,CC50 [2]: 14.6 µM; CC50 [8]: 20.4 µM
"C=C1C(=O)OC2C(OC(C)=O)C3(C)CCC(OC(C)=O)(O3)C3(C)CC(OC(C)=O)C12O3 (stereo not drawn) [Compound 8a, 1,5,8-triacetoxy-1(4),7(10)-diepoxy-germacr-11(13)-en-6(12)-o1ide]",67.3 ± 4.0%,5.3 ± 0.3%,53.1 ± 0.0%,"CC50 ([2]; Homo sapiens, SK-MEL-28): 3.1 µM; SI (selectivity index) SK-MEL-28 [2]: 3.0; CC50 at 24 h [4]: 9 µM"
"C=C1C(=O)OC2C(OC(C)=O)C(C)(O)CC3C(=O)C(C)(O)CC(OC(C)=O)C132 (stereo not drawn) [Compound 9a, 5,8-diacetoxy-vernomargolide]",85.9 ± 5.0%,73.8 ± 3.1%,84.8 ± 0.9%,
"CC(=O)OCC1=C2C(OC(C)=O)CC(C)(OC(C)=O)C(=O)CCC3(C)OC3C2OC1=O (stereo not drawn) [Compound 1, glaucolide B]",88.0 ± 4.8%,82.6 ± 4.1%,85.1 ± 4.6%,
"C=C1C(=O)OC2C(OC(C)=O)C3(C)CC4C12C(OC(C)=O)CC1(C)OC(C)(C)OC41O3 (stereo not drawn) [Compound 6, 5,8-diacetoxy-2-epi-vernomargolide-1,4-cycloacetal-1,10-acetonide]",90.4 ± 3.7%,85.9 ± 4.0%,90.4 ± 1.5%,
